This experiment concerns Mycobacterium tuberculosis. As to the kind of experiment: In vitro activity vs Mycobacterium tuberculosis, proportion method. Format: cell-based. Particulars: ten(10) clinical isolates of Myco. tuberculosis (including several multiply-resistant strains), read-out: average MIC.

Structures are written as SMILES.

In patent EP0542497A1, “Heterocyclic compounds” (THE WELLCOME FOUNDATION LIMITED, priority 1991, dated 1993) one finds M I C data, which are given here for one compound.

As to `CCC(CC)n1c(C)cc2c3c(N)nc(N)nc3ccc21` [Compound 2, 1,3-Diamino-7-(1-ethylpropyl)-8-methyl-7H-pyrrolo(3,2-f)quinazoline], the M I C amounted to 3.2 µg/mL.
